Reference: patent US12263172B2, “Toll-like receptor agonists for use in the treatment of hepatitis b” (priority 2019, dated 2025)
Values joined by “and” are separate entries in the source; they are usually repeats but may differ in a detail not shown here. Equal values may be shown once. “Also recorded” adds a separate entry of the source.

Assay: Phase 1 single-ascending dose (Part 1): safety and tolerability in healthy adults
Type: in vivo, human
Procedure: This ongoing trial is a Phase 1 randomized, double-blind, placebo-controlled study in male and female healthy adult volunteers aged 18-55 years. All volunteers provided written, informed consent.
All volunteers were followed up for 4 weeks and safety and tolerability were continuously assessed throughout the study. All adverse events (AEs) were recorded from the time of consent to the completion visit and were graded using the DAIDS toxicity grading scale. Volunteers also underwent physical examinations, electrocardiograms, vital sign checks and clinical laboratory parameters (chemistry, haematology, urinalysis).

## CCCCOc1nc(N)c2[nH]cc(Cc3ccc(CN4CCCC4)cc3)c2n1 [Compound 4]
Single dose 1.8 mg fasted
  lab toxicity: Triglycerides (mmol/L), upwards, Grade 3: 1 (16.7%) n (%)
  lab toxicity: Urate (μmol/L), upwards, Grade 1: 1 (16.7%) n (%)
  subjects with at least one AE: 5 (83.3%) n (%)
  subjects with at least one AE for which any study drug or study was permanently stopped: 0 n (%)
  subjects with at least one AE for which any study drug or study was temporarily stopped: 0 n (%)
  subjects with at least one AE possibly related to any study drug: 1 (16.7%) n (%)
  subjects with at least one AE possibly, probably or very likely related to any study drug: 2 (33.3%) n (%)
  subjects with at least one AE probably related to any study drug: 2 (33.3%) n (%)
  subjects with at least one SAE: 0 n (%)
  subjects with at least one fatal AE: 0 n (%)
  subjects with at least one grade 1 AE: 3 (50.0%) n (%)
  subjects with at least one grade 2 AE: 2 (33.3%) n (%)
  subjects with at least one grade 3 or 4 AE: 0 n (%)
  subjects with fever and flu-like symptoms (flu-like AEs and lymphopenia): 2 and 2/6
  subjects with high VLDL cholesterol levels (non-graded): 4 (66.7%) n (%)
  subjects with high values for segmented neutrophils/leukocytes (non-graded): 4 (66.7%) n (%)
  treatment-related AE: Any AE: 2 (33.3%) n (%)
  treatment-related AE: Chills: 2 (33.3%) n (%)
  treatment-related AE: Dizziness: 2 (33.3%) n (%)
  treatment-related AE: General disorders and administration site conditions: 2 (33.3%) n (%)
  treatment-related AE: Headache: 1 (16.7%) n (%)
  treatment-related AE: Hypertension: 2 (33.3%) n (%)
  treatment-related AE: Myalgia: 1 (16.7%) n (%)
  treatment-related AE: Nervous system disorders: 2 (33.3%) n (%)
  treatment-related AE: Oropharyngeal pain: 1 (16.7%) n (%)
  treatment-related AE: Pyrexia: 2 (33.3%) n (%)
  treatment-related AE: Respiratory, thoracic and mediastinal disorders: 1 (16.7%) n (%)
  treatment-related AE: Vascular disorder: 2 (33.3%) n (%)
  vital signs: Respiratory rate (brpm) Grade 1: 2 (33.3%) n (%)
  vital signs: Respiratory rate (brpm) Grade 2: 1 (16.7%) n (%)
  vital signs: SaO2 (%) 90% to <95%: 0 n (%)
  vital signs: SaO2 (%) 95% to <98%: 2 (33.3%) n (%)
  vital signs: Standing DBP (mmHg) Grade 1: 3 (50.0%) n (%)
  vital signs: Standing DBP (mmHg) Grade 2: 1 (16.7%) n (%)
  vital signs: Standing DBP (mmHg) Grade 3: 1 (16.7%) n (%)
  vital signs: Standing DBP (mmHg) Low: 0 n (%)
  vital signs: Standing SBP (mmHg) Grade 1: 1 (16.7%) n (%)
  vital signs: Standing SBP (mmHg) Low: 0 n (%)
  vital signs: Standing pulse (bpm) High: 0 n (%)
  vital signs: Standing pulse (bpm) Low: 0 n (%)
  vital signs: Supine DBP (mmHg) Grade 1: 1 (16.7%) n (%)
  vital signs: Supine DBP (mmHg) Low: 0 n (%)
  vital signs: Supine SBP (mmHg) Grade 1: 1 (16.7%) n (%)
  vital signs: Supine SBP (mmHg) Grade 2: 1 (16.7%) n (%)
  vital signs: Supine SBP (mmHg) Low: 0 n (%)
  vital signs: Supine pulse (bpm) Low: 1 (16.7%) n (%)
  ↑ AST Grade 3 (laboratory abnormality): 0 n (%)
  ↑ Amylase Grade 2 (laboratory abnormality): 0 n (%)
  ↑ Cholesterol Grade 2 (laboratory abnormality): 1/5
  ↑ Creatine kinase Grade 2 (laboratory abnormality): 1 n (%)
  ↑ Creatine kinase Grade 4 (laboratory abnormality): 0 n (%)
  ↑ Glucose Grade 2 (laboratory abnormality): 0 n (%)
  ↑ LDL cholesterol Grade 2 (laboratory abnormality): 0 n (%)
  ↑ LDL cholesterol Grade 3 (laboratory abnormality): 0 n (%)
  ↑ Lipase Grade 2 (laboratory abnormality): 1/5
  ↑ Pancreatic amylase Grade 2 (laboratory abnormality): 1/2
  ↑ Potassium Grade 2 (laboratory abnormality): 1/5
  ↑ Sodium Grade 2 (laboratory abnormality): 1 n (%)
  ↑ Triglycerides Grade 2 (laboratory abnormality): 0 n (%)
  ↑ Triglycerides Grade 3 (laboratory abnormality): 1 n (%)
  ↓ Bicarbonate Grade 2 (laboratory abnormality): 1 n (%)
  ↓ GFR Grade 2 (laboratory abnormality): 0 n (%)
  ↓ Lymphocytes Grade 2 (laboratory abnormality): 0 n (%)
  ↓ Lymphocytes Grade 4 (laboratory abnormality): 2 n (%)
  ↓ Neutrophils Grade 2 (laboratory abnormality): 1 n (%)
  ↓ Phosphate Grade 2 (laboratory abnormality): 0 n (%)
Single dose 1.8 mg fasted, n = 1 with data
  lab toxicity: GFR from creatinine adjusted for BSA (mL/s/1.73m^2), downwards, Grade 2: 0 n (%)
Single oral doses of 0.2-1.8 mg
  safety and tolerability: well tolerated with no major safety concerns; also recorded: generally considered safe and well tolerated
